In US8338607B2, “Cyclic amine compounds and agents for pest control” (Nippon Soda Co., Ltd., priority 2005, dated 2012):

What was measured:
[1] = system: Tetranychus urticae; assay: Effectiveness against Tetranychus urticae (common bean leaf, wettable powder drug solution); assay type: in vivo; conditions: adult female Tetranychus urticae resistant to organophosphorus pesticides; 125 ppm; examined 3 days after the application; 25° C., 65% humidity
[2] = system: Panonychus citri; assay: Effectiveness against Panonychus citri (mandarin orange leaf, emulsion applied with rotary spreading tower); assay type: in vivo; conditions: adult female Panonychus citri; 125 ppm; adults removed 3 days after the application; whether eggs could grow to adults examined on the 11th day
Protocol: 10 adult female Panonychus citri were inoculated on the leaf of a mandarin orange, which was placed in a petri dish. After the inoculation, the drug solution, which was prepared by following the method of the emulsion shown in Example 2 of the drugs and by diluting with water to achieve the compound concentration of 125 ppm, was applied using a rotary spreading tower. The dish was placed in a temperature-controlled room where the temperature and humidity were set to 25° C. and 65% respectively, adults were removed 3 days after the application, and whether eggs laid during these 3 days could grow to become adults was examined on the 11th day.

SMILES | insecticidal rate (adulticidal rate) [1] [%] | insecticidal rate [2] [%]
FC(F)(F)c1ccc(OC2CC3CCC(C2)N3c2ccc(C(F)(F)F)cn2)nc1 (stereo not drawn) [Compound 2-3, 3α-(5-trifluoromethyl-2-pyridyloxy)-8-(5-trifluoromethyl-pyridine-2-yl)-8-azabicyclo[3.2.1]octane] | 100 | 
CCCOc1cc(C(F)(F)F)ccc1OC1CC2CCC(C1)N2c1ccc(C(F)(F)F)c(F)c1 (stereo not drawn) [Compound 4-70] | 100 | 100
